Data as given in patent publication US4122184A, “Benzimidazole insecticides” (priority 1977, dated 1978).

Columns and labels:
Eastern Tent Caterpillar [1] = experiment: Field trial, contact poison test; type: in vivo
How it was run: (§1)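 Mortality after direct spraying was scored at 24, 48 and 72 hours where applicable, using a 0–9 rating tied to 10% bands. Plants bearing insects received atomized compound at 10 psi over a range of concentrations.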

Walnut Caterpillar = experiment: Field trial, contact poison test; type: in vivo
How it was run: as §1

Armyworm, P. Unipuncta = experiment: Field trial, contact poison test; type: in vivo
How it was run: as §1

Elm Leaf Beetle = experiment: Field trial, contact poison test; type: in vivo
How it was run: as §1

Tussock Moth [2] = experiment: Field trial (first summer), stomach; type: in vivo; details: 750 ppm
Zebra Caterpillar = experiment: Field trial (first summer), stomach; type: in vivo; details: 500 ppm
Eastern Tent Caterpillar [3] = experiment: Field trial, topical application; type: in vivo
How it was run: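 1 μL benzimidazole solution of set microgram content applied topically to larvae or adults. Mortality read at 24, 48 and 72 h where applicable, rated 0-9 (0 = 0-10%, 9 = 91-100%); values are average mortality per concentration.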

Mexican Bean Beetle = experiment: Field trial (first summer), topical; type: in vivo, Epilachna varivestis
Procedure: In a variation of the above test, 1 microliter of a test solution containing a predetermined number of micrograms of benzimidazole was applied directly to larvae or adult insects.
During the previous summer similar field trials were conducted employing the same tests as heretofore but with some additional species of insects not included in the later tests. The results listed below are for tests in which an insect mortality was established by a given application route and at a given concentration in a particular test. The same 0 - 9 scoring system is used as is the designation of compounds by alphabetical symbols.

Tussock Moth [4] = experiment: Field trial (first summer), contact; type: in vivo; details: 750 ppm
German Roach = experiment: Field trial (first summer), contact; type: in vivo; details: 500 ppm
American Roach = experiment: Field trial (first summer), contact; type: in vivo; details: 500 ppm
Buffalo Tree Hopper = experiment: Field trial (first summer), contact; type: in vivo; details: 125 ppm
Bagworms = experiment: Field trial, contact poison test; type: in vivo; design: key: 0-9 scale: 0 = 0-10% mortality, 9 = 91-100% mortality
From the text: Infested plants are placed in 6 oz. prescription bottles filled with water to keep them from wilting. Cellucotton is wrapped around the plant stem and squeezed into the bottle neck to prevent the insects from drowning.
A DeVilbiss Special Atomizer (5004) is used at 10 psi to spray the test plant with different concentrations of compounds. The atomizer is held at arm's length to prevent blowing the insects off the host plant. After treating, the bottles are placed on a table covered with brown wrapping paper to catch the dead insects as they drop from the plant. The plants are spaced so the leaves or plants are not touching one another.
The results are read at 24, 48, and 72 hours when applicable. The rating scale is 0 to 9 where 0 = 0-10 percent and 9 = 91-100 percent mortality.
Using the above methods, field trials were carried out against species of 5 orders of insects. The results, which are summarized in the following tables, give the average mortality for the particular insect with a given benzimidazole for each concentration employed. […] These tables contain all results obtained during the summer trials.

Mosquito Larvae = experiment: Mosquito larvae test (dip test); type: in vivo, Aedes aegypti; details: 48 h
Procedure: Aedes aegypti larvae 5 days old are allowed to feed on fresh food for at least 3 hours previous to being placed on test. Larvae are then removed from the rearing pans by pouring on a 20 mesh screen, washing with deionized water, and pooling in a 6-inch white enameled sauce pan.
Twenty larvae are placed in a 1 oz. paper cup containing 25 ml. of deionized water.
Test chemicals are dissolved in a suitable solvent and pipetted under the surface of 225 ml. of deionized water in one pint wide-mouthed Mason jar test containers and stirred. A cup containing 20 larvae in 25 ml. of water is then added. […]
Results are determined 48 hours later by counting the dead and moribund larvae. […] Moribund larvae are those that are capable of limited, or poorly coordinated, locomotion in a sluggish manner.
Live larvae respond normally and actively.

Citrus Rust Mite (CRM) = experiment: Miticide test, acute mortality, foliar spray; type: in vivo
Procedure: Citrus cuttings were obtained and prepared for testing within 24 hours prior to inoculation with citrus rust mites. To prepare the cuttings, terminals of branches 12 to 14 inches in length were cut from temple orange trees, immediately placed in tap water and taken into the laboratory. Uniform hardwood cuttings, 3 to 4 inches in length, were cut from the branches, all but one hardened leaf was removed from the cuttings, and the remaining leaf was wiped clean with a cotton pad soaked in 10% ethanol solution. Each cutting was immediately placed in tap water in a test tube with the closed leaf extending out of the test tube. Then, a ring of melted lanolin was applied around the petiole to prevent migration of mites from the leaf. One cutting was used for each replicate.
When the leaves were dry immediately after cleaning, citrus rust mites were transferred to the test leaves by cutting a heavily infested colony leaf (from a source colony maintained on citrus seedlings) into 20 to 22 sections (approximately 0.25 by 0.5 inches in size) and using forceps to place 1 section on each leaf cutting. As the section became desiccated the mites moved to the whole leaf and in 20 hours the sections were removed from the leaves for treatment application.
Treatments were applied within 24 hours after inoculation by removing the cuttings from the test tube and submerging the leaves in the treatment solution for 5 seconds by hand and immediately returning the cutting to the test tube. […]
The treated cuttings were stored in the greenhouse for 24 hours before evaluation under a binocular disecting microscope in the laboratory. In evaluating the results of the miticide test, each treated cutting was removed from the test tube, observed for live and dead mites at 14 × magnification, and returned immediately to the test tube. A scale of 0-9 was used as before.

Molecule	average mortality rating (Eastern Tent Caterpillar [1]; 50 ppm)	average mortality rating (Eastern Tent Caterpillar [1]; 100 ppm)	average mortality rating (Eastern Tent Caterpillar [1]; 250 ppm)	average mortality rating (Eastern Tent Caterpillar [1]; 500 ppm)	average mortality rating (Walnut Caterpillar; 25 ppm)	average mortality rating (Walnut Caterpillar; 50 ppm)	average mortality rating (Walnut Caterpillar; 100 ppm)	average mortality rating (Walnut Caterpillar; 250 ppm)	average mortality rating (Armyworm, P. Unipuncta; 125 ppm)	average mortality rating (Armyworm, P. Unipuncta; 250 ppm)	average mortality rating (Armyworm, P. Unipuncta; 500 ppm)	average mortality rating (Elm Leaf Beetle; 250 ppm)	average mortality rating (Elm Leaf Beetle; 500 ppm)	average mortality rating (Elm Leaf Beetle; 1000 ppm)	insect mortality rating (Tussock Moth [2])	insect mortality rating (Zebra Caterpillar)	average mortality rating (Eastern Tent Caterpillar [3]; 0.3 μg/μl)	average mortality rating (Eastern Tent Caterpillar [3]; 0.6 μg/μl)	average mortality rating (Eastern Tent Caterpillar [3]; 1.2 μg/μl)	average mortality rating (Bagworms; 125 ppm)	also measured
O=[N+]([O-])c1cc(C(F)(F)F)cc2nc(C(F)(F)F)[nH]c12 [A, 2,6-bis(trifluoromethyl)-4-nitrobenzimidazole]	0 (0-10 percent)	3	5	5	1	1	1	7	0 (0-10 percent)	1	3	0 (0-10 percent)	7	9 (91-100 percent mortality)	9 (91-100 percent mortality)	7	3	1	3	0 (0-10 percent)	insect mortality rating (Mexican Bean Beetle; .25 μg/μl): 9 (91-100 percent mortality); insect mortality rating (Tussock Moth [4]): 9 (91-100 percent mortality); insect mortality rating (German Roach): 8; insect mortality rating (American Roach): 9 (91-100 percent mortality); insect mortality rating (Buffalo Tree Hopper): 9 (91-100 percent mortality); average mortality rating (Bagworms; 250 ppm): 4; average mortality rating (Bagworms; 500 ppm): 4; average mortality rating (Bagworms; 750 ppm): 1; average mortality rating (Bagworms; 1000 ppm): 0 (0-10 percent); average mortality rating (Bagworms; 1500 ppm): 0 (0-10 percent)
mixture of methyl 2,6-bis(trifluoromethyl)-4-nitro-1-benzimidazolecarboxylate and methyl 2,5-bis(trifluoromethyl)-7-nitro-1-benzimidazolecarboxylate																					average mortality rating (Mosquito Larvae; 0.025 ppm): 0 (0-10%); average mortality rating (Mosquito Larvae; 0.05 ppm): 0 (0-10%); average mortality rating (Mosquito Larvae; 0.1 ppm): 4 (45-50%)
CC(C)OC(=O)n1c(C(F)(F)F)nc2c([N+](=O)[O-])cc(C(F)(F)F)cc21 [I, isopropyl 2,6-bis(trifluoromethyl)-4-nitro-1-benzimidazolecarboxylate]	0 (0-10 percent)	1	3	6	0 (0-10 percent)	1	2	3	0 (0-10 percent)	0 (0-10 percent)	0 (0-10 percent)	1	1	1			0 (0-10 percent)	1	2	1	average mortality rating (Eastern Tent Caterpillar [1]; 1000 ppm): 5; average mortality rating (Bagworms; 250 ppm): 4; average mortality rating (Bagworms; 500 ppm): 5; average mortality rating (Bagworms; 750 ppm): 2; average mortality rating (Bagworms; 1000 ppm): 1; average mortality rating (Bagworms; 1500 ppm): 0 (0-10 percent); acute mortality rating (Citrus Rust Mite (CRM); 6.25 ppm, after 24 hours): 5; acute mortality rating (Citrus Rust Mite (CRM); 12.5 ppm, after 24 hours): 7; acute mortality rating (Citrus Rust Mite (CRM); 25 ppm, after 24 hours): 9 (91-100 percent mortality); acute mortality rating (Citrus Rust Mite (CRM); 50 ppm, after 24 hours): 9 (91-100 percent mortality); acute mortality rating (Citrus Rust Mite (CRM); 100 ppm, after 24 hours): 9 (91-100 percent mortality)
CCCCCCOC(=O)n1c(C(F)(F)F)nc2c([N+](=O)[O-])cc(C(F)(F)F)cc21 [E, n-hexyl 2,6-bis(trifluoromethyl)-4-nitro-1-benzimidazolecarboxylate]															5	5					insect mortality rating (Mexican Bean Beetle; .0625 μg/μl): 9 (91-100 percent mortality); average mortality rating (Mosquito Larvae; 0.010 ppm): 0 (0-10%); average mortality rating (Mosquito Larvae; 0.025 ppm): 0 (0-10%); average mortality rating (Mosquito Larvae; 0.05 ppm): 1 (15-20%); average mortality rating (Mosquito Larvae; 0.1 ppm): 8 (85-90%); acute mortality rating (Citrus Rust Mite (CRM); 6.25 ppm, after 48 hours): 4; acute mortality rating (Citrus Rust Mite (CRM); 12.5 ppm, after 48 hours): 8; acute mortality rating (Citrus Rust Mite (CRM); 25 ppm, after 48 hours): 9 (91-100 percent mortality); acute mortality rating (Citrus Rust Mite (CRM); 50 ppm, after 48 hours): 9 (91-100 percent mortality); acute mortality rating (Citrus Rust Mite (CRM); 100 ppm, after 48 hours): 9 (91-100 percent mortality)
